Results on two compounds are retold here after patent US20100273848A1, “IMINOPYRROLIDONE THIOL AMINO ACID CONJUGATES, PHARMACEUTICAL COMPOSITIONS AND METHODS FOR THE TREATMENT OF CANCER” (THE ARIZONA BD OR REG ON BEHALF OF THE UNIV OF AZ, priority 2007, published 2010).

Assay [1] has as its system MiaPaCa human pancreatic cancer cells. The assay can be described thus: Cytotoxicity study, SRB assay, MiaPaCa cells. Format: cell-based. The settings on record: 96 hours, read-out: IC50 at 72* or 96 hours. As to the method:
(§1) Example 1 illustrates a method of determining the antineoplastic activity of iminopyrrolidone thiol amino acid conjugates in vitro. Ninety-six (96) well plates (BD Biosciences, San Jose, Calif.) were seeded with approximately 5000 cells in 160 μl of growth medium per well in the last eleven columns of each plate. The first column of each plate was filled with 160 μl of growth medium containing no cells to be used as a blank. Following a 24-hour incubation period, the cells in the last ten columns were drugged (leaving row one as a blank and row two as a control with uninhibited cell growth) with 40 μl of either simexonyl homocysteine or imexon in growth medium. The quantity of drug added to the wells of each respective column was constant, but varied from column to column such that the resulting concentration in the total volume of each individual well ranged from 1 μM to 1000 μM. […]
A general note: The SRB assay estimates cell density from bound dye.

Another assay concerns Raji lymphoma cells. The assay can be described thus: Cytotoxicity study, MTT assay, Raji cells. The following applies: 96 hours, read-out: IC50 at 72* or 96 hours. Format: cell-based, human. As for the experimental part: as §1
On the technique in general: Tetrazolium dyes change colour on reduction, which living cells bring about.

The subject of assay [2] is DB lymphoma cells. The assay can be described thus: Cytotoxicity study, MTT assay, DB cells. In kind it is cell-based, human. The following applies: 96 hours, read-out: IC50 at 72* or 96 hours. As for the experimental part: as §1
For assay [3], the system named is DU-145 human prostate cancer cells. Kind of assay: Cytotoxicity study, SRB assay, DU-145 cells. Format: cell-based. The settings on record: DU-145 - Prostate, 96 hours, read-out: IC50 at 72* or 96 hours. As for the experimental part:
as §1

The test system of assay [4] is A375 human malignant melanoma cells. The assay can be described thus: Cytotoxicity study, SRB assay, A375 cells. Format: cell-based. The settings on record: 96 hours, read-out: IC50 at 72* or 96 hours. As for the experimental part: as §1
Assay [5] has as its system DB lymphoma cells. The settings on record: 45, 90 or 180 μM, 48 hours after drug exposure, FIG. 6.
Description: DB and Raji lymphoma cells were kindly provided by Dr. Alan List (University of Arizona, Tucson, Ariz.). All cell lines were cultured in RPMI 1640 media (Mediatech, Herndon, Va.) enhanced with 5% (v/v) (10% for DB and Raji cells) heat-inactivated bovine calf serum (Hyclone Laboratories, Logan, Utah), 2 mM L-glutamine, 100 U/ml penicillin, and 100 μg/ml streptomycin (each from Invitrogen, Carlsbad, Calif.) in a humidified incubator containing 5% CO2 at 37° C.
DB lymphoma cells were cultured in ninety-six (96) well plates (BD Biosciences) under conditions as described hereinbefore. […] Forty eight hours after drug exposure, the percentage of necrotic, viable, proapoptotic, and apoptotic cells in each respective well was measured using an annexin V—FITC (fluorescein isothiocyanate labeled annexin V) apoptosis detection kit (BioVision Labs) according to the manufacturer's instructions in conjunction with a Bectin Dickenson FACScan (San Jose, Calif.) fluorescence activated cell sorter using CellQuest Pro software (BD Biosciences). […]
A threshold intensity for the fluorescence signal permits one to distinguish between proapoptotic and apoptotic cells in the flow cytometric analysis, but both are indicative of an induction of apoptosis by the drug.
Assay [6] deals with 8226/s human myeloma cells (chemotherapy sensitive). Kind of assay: Cytotoxicity study, MTT assay, 8226/s cells. In kind it is cell-based. The settings on record: 8226/s - Myeloma, 96 hours, read-out: IC50 at 72* or 96 hours. As to the method: as §1
Assay [7] relates to 8226/I10 human myeloma cells (chemotherapy resistant). Kind of assay: Cytotoxicity study, MTT assay, 8226/I10 cells. Format: cell-based. The following applies: 8226/I10 - Myeloma, 96 hours, read-out: IC50 at 72* or 96 hours. As to the method:
as §1

The subject of assay [8] is PC-3 human prostate cancer cells. Kind of assay: Cytotoxicity study, SRB assay, PC-3 cells. In kind it is cell-based. The settings on record: PC-3 - Prostate, 72 hours (*), read-out: IC50 at 72* or 96 hours. As for the experimental part:
as §1

pIC50: −log10 of the molar value. Like-named read-outs stand apart in the source and are kept apart here.

For `NC1=NC(=O)N2CC12` (racemic) [imexon, (5RS)-4-amino-1,3-diazabicyclo[3.1.0]hex-3-en-2-one, reference compound], the negative logarithm of the IC50 (pIC50) – broadly, the negative decadic logarithm of the IC50, by convention in mol/L – was 3.72 in assay [1] (Homo sapiens, MIA PaCa-2, MiaPaCa - Pancreas); 4.30 with Raji lymphoma cells (Homo sapiens); 4.27 with DB lymphoma cells [2] (Homo sapiens).
In the case of simexonyl homocysteine, the negative logarithm of the IC50 (pIC50) was 3.85 in [3]; 4.34 in assay [1] (MiaPaCa - Pancreas); 4.81 in assay [4]; 4.66 with Raji lymphoma cells; 4.64 in the assay with DB lymphoma cells [2]; 4.87 in assay [6]. The pIC50 in assay [7] is 4.02; in [8], 4.31. Also, the “induction of apoptosis (percentage of proapoptotic and apoptotic cells)” value with DB lymphoma cells [5] was “induced apoptosis”.
